Test results from patent publication US10668049B2, “Methods of treating cognitive decline with transforming growth factor beta inhibitors” (The Regents of the University of California, priority 2008, dated 2020).

System: neocortical slices
Assay: Field potential recordings of epileptiform activity in neocortical slices
Type: cell-based, rat
Procedure: Brain slices for the in vitro experiments were prepared by means of standard techniques (Ivens et al., 2007; Pavlovsky et al., 2003; Seiffert et al., 2004). Slices were transferred to a recording chamber where they were incubated in aCSF containing BSA (6.7 mg/ml), TGF-β1 (10 ng/ml) or artificial serum (aSerum, composition based on aCSF with the following changes, composition in mM: 0.8 MgSO4, 1.3 CaCl2, 5.7 KCl, 1 L-glutamine, 0.1 albumin). To block the activity of TGF-β1, slices were incubated in aCSF containing SB431542 (10 μM) before the addition of TGF-β1 (10 ng/ml). To block TGF-βRs, slices were incubated in aCSF containing SB431542 (10 μM) and TGF-βRII antibody (10 μg/ml) for 30 min followed by incubation in BSA in the presence of TGF-βR blockers. For detection of epileptiform activity, field potentials were recorded >4 h following incubation in cortical layer IV using extracellular glass microelectrodes (˜3 MΩ) in response to bipolar stimulation at the border of white and grey matter.
To assess the hypothesis that activation of the TGF-β signaling pathway is the mechanism underlying albumin-induced epileptogenesis, we activated this pathway directly by incubating neocortical slices with TGF-β1 (10 ng/mL) in artificial cerebrospinal fluid (aCSF) and performed electrophysiological recordings. These recordings were compared to those of slices treated with a solution containing serum levels of electrolytes and 0.1 mM albumin (aSERUM, previously shown to induce epileptogenesis; Ivens et al., 2007), albumin in aCSF, or aCSF (control). […] When albumin was added to the control aCSF solution, epileptiform activity was recorded in response to stimulation of the white matter (n=8 out of 12 slices, 6 animals). Importantly. TGF-β1 treatment was sufficient to recapitulate epileptiform activity similar to that seen following treatment with aSERUM and albumin in aCSF (n=5 out of 5 slices, 4 animals; n=7 out of 9 slices, 3 animals; and n=8 out of 12 slices, 6 animals, respectively). In all three cases, the evoked epileptiform activity, was all-or-none in nature, paroxysmal and prolonged, similar to that seen following BBB opening with bile salts (Ivens et al., 2007; Seiffert et al., 2004) and typical to that observed in acute models of epilepsy (Gutnick et al., 1982).
To further confirm that the TGF-β1 induced epileptiform activity was dependent on the TGF-βR mediated pathway, we performed additional trials of the above experiments in the presence of two TGF-βR blockers (SB431542, the TGF-βRI kinase activity inhibitor and TGF-βRII antibody).

Substance: albumin: bovine serum albumin, used to induce epileptogenesis
- integral of the field potential (inducer alone, without TGF-βR blockers): 117.2±35.4 mV*ms
- evoked epileptiform activity in response to stimulation of the white matter, slices showing it (slices incubated with the inducer): 8 out of 12
